9 molecules from article PMC12774438, “CBL ubiquitin ligase targets translation as a degrader E3” (Chemical Science, 2025) can be followed below.

The target in assay [1] is T1, His-eIF4E (Homo sapiens, UniProt P06730).
T1 construct: made in house; host or cells: E. coli BL21(DE3) Gold
Put plainly: SPR binary binding of peptides to immobilised His-eIF4E. The note with it: 25°C, ligand His-eIF4E amine-coupled to CM5 chip, steady-state affinity, analyte 0.005859-0.75 µM, n = 3, mean ± SD. The protocol:
Supplementary Figure 4. Related to Table 2
A. Sensorgrams (left) and binding curves (right) showing a three-fold dilution series […]
over immobilised eIF4E. […]
(1 picture or pasted object on this page, not shown here) […]
Data were analysed by […] affinity analysis using Cytiva Biacore TM Insight Evaluation Software. Sensorgrams for figures were made using GraphPad Prism 9.5.1.
Studying the interactions between eIF4E and eIFTerminator1-4
His-eIF4E protein was immobilised on Cytiva’s sensor chip CM5 using amine-coupling. The chip was docked and primed in running buffer (50 mM HEPES pH 7.5, 100 mM NaCl, 1 mM TCEP, 0.05% Tween20). Cytiva’s amine-coupling kit was used to capture the ligand. Briefly, 0.4 M EDC and 0.1 M NHS from the kit were mixed 50:50 and injected to activate the chip surface for 300 s at 10 μL/min. His-eIF4E was prepared for amine coupling as described previously (15). After achieving a capture level of approximately 120 RU, the remaining binding sites were blocked with ethanolamine hydrochloride-NaOH (pH 8.5) from the kit for 420 s at a flow rate of 10 μL/min. Reference surfaces were prepared in duplicates […]
Multi-cycle experiments were performed to gain steady-state binding affinity of eIFTerminator1-4 to His-eIF4E. At a flow rate of 30 μL/min, 20 startups with a 30 s contact time and a 30 s dissociation time were done prior to sample injection. An 8-point, 1 in 2 dilution series of eIFTerminator1-4 or eIF4G1-D5S peptide was injected (0.005859 – 0.75 μM) with a 100 s contact time and a 250 s dissociation time at a flow rate of 30 μL/min. The peptides were dissolved in running buffer and filtered using Coster Spin-X 0.22 μM centrifuge tube filters as described above. […]

Assay [2] addresses T2, His-eIF4E (UniProt P06730 1-217).
T2 construct: eukaryotic translation initiation factor 4E (eIF4E); Immobilised on the SPR chip; also called eukaryotic translation initiation factor 4E; source: recombinant
Put plainly: SPR; His-eIF4E immobilised; dilution series of eIFTerminator with a fixed, saturating concentration of CBL (1 µM) as analyte; steady-state affinities, ternary complex. The note with it: both partners purified. (SPR reads the build-up and loss of mass on a sensor chip optically.)

Where a SMILES comes first, the peptide text is derived from it.

T2 sequence (P06730 whole entry): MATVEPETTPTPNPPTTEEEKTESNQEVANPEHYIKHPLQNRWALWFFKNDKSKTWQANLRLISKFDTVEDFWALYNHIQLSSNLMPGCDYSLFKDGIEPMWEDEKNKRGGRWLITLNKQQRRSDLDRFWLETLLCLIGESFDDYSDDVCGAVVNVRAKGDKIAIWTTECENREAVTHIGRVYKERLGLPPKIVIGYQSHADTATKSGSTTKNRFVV
T1 sequence (P06730 whole entry): as above

As usually defined, the Kd is the constant that tells how readily two partners part at equilibrium. Higher therefore signals a looser complex. In turn, `CC[C@H](C)[C@H](NC(=O)[C@H](Cc1c[nH]c2ccccc12)NC(=O)[C@H](CO)NC(=O)[C@H](CC(=O)O)NC(=O)[C@H](CCSC)NC(=O)[C@H](CCC(=O)O)NC(=O)[C@H](CCC(=O)O)NC(=O)[C@@H](NC(=O)[C@@H](NC(=O)[C@H](CCSC)NC(=O)CNC(=O)[C@H](CO)NC(=O)CNC(=O)CNC(=O)[C@H](CO)NC(=O)CNC(=O)CNC(=O)[C@H](CO)NC(=O)CNC(=O)CNC(=O)[C@H](Cc1ccccc1)NC(=O)CNC(=O)[C@H](CC(C)C)NC(=O)[C@H](CC(C)C)NC(=O)[C@H](Cc1ccccc1)NC(=O)[C@H](CCC(=O)O)NC(=O)[C@H](CCCNC(=N)N)NC(=O)[C@H](CO)NC(=O)[C@H](Cc1ccc(O)cc1)NC(=O)[C@H](CCCNC(=N)N)NC(=O)[C@H](CCCCN)NC(=O)[C@@H](N)CCCCN)[C@@H](C)O)C(C)C)C(=O)N[C@@H](CCCCN)C(=O)N[C@@H](CO)C(=O)N[C@@H](Cc1c[nH]c2ccccc12)C(=O)N[C@@H](CC(=O)O)C(=O)N[C@@H](CCC(N)=O)C(=O)N[C@@H](CCCNC(=N)N)C(N)=O` [eIFTerminator3] (H-KKRYSREFLLGFGGSGGSGGSGMTVEEMDSWIKSWDQR-NH2) showed a Kd in assay [1] of 39.5 ± 3.4 nM.
On to `CC[C@H](C)[C@H](NC(=O)[C@H](Cc1c[nH]c2ccccc12)NC(=O)[C@H](CO)NC(=O)[C@H](CC(=O)O)NC(=O)[C@H](CCSC)NC(=O)[C@H](CCC(=O)O)NC(=O)[C@H](CCC(=O)O)NC(=O)[C@@H](NC(=O)[C@@H](NC(=O)[C@@H](N)CCSC)[C@@H](C)O)C(C)C)C(=O)N[C@@H](CCCCN)C(=O)N[C@@H](CO)C(=O)N[C@@H](Cc1c[nH]c2ccccc12)C(=O)N[C@@H](CC(=O)O)C(=O)N[C@@H](CCC(N)=O)C(=O)N[C@@H](CCCNC(=N)N)C(=O)NCC(=O)NCC(=O)N[C@@H](CO)C(=O)NCC(=O)NCC(=O)N[C@@H](CO)C(=O)NCC(=O)NCC(=O)N[C@@H](CO)C(=O)NCC(=O)N[C@@H](CCCCN)C(=O)N[C@@H](CCCCN)C(=O)N[C@@H](CCCNC(=N)N)C(=O)N[C@@H](Cc1ccc(O)cc1)C(=O)N[C@@H](CO)C(=O)N[C@@H](CCCNC(=N)N)C(=O)N[C@@H](CCC(=O)O)C(=O)N[C@@H](Cc1ccccc1)C(=O)N[C@@H](CC(C)C)C(=O)N[C@@H](CC(C)C)C(=O)NCC(=O)N[C@@H](Cc1ccccc1)C(N)=O` [eIFTerminator4] (H-MTVEEMDSWIKSWDQRGGSGGSGGSGKKRYSREFLLGF-NH2), for which the Kd in assay [1] turned out to be 60.6 ± 8.5 nM.
Take `CC(C)C[C@H](NC(=O)[C@H](CC(C)C)NC(=O)[C@H](Cc1ccccc1)NC(=O)[C@H](CCC(=O)O)NC(=O)[C@H](CCCNC(=N)N)NC(=O)[C@H](CO)NC(=O)[C@H](Cc1ccc(O)cc1)NC(=O)[C@H](CCCNC(=N)N)NC(=O)[C@H](CCCCN)NC(=O)[C@@H](N)CCCCN)C(=O)NCC(=O)N[C@@H](Cc1ccccc1)C(N)=O` [eIF4G1-D5S] (H-KKRYSREFLLGF-NH2): binding in assay [1] was characterised by a dissociation constant (Kd) of 38.9 ± 6.5 nM.
`CC[C@H](C)[C@H](NC(=O)[C@H](Cc1c[nH]c2ccccc12)NC(=O)[C@H](CO)NC(=O)[C@H](CC(=O)O)NC(=O)[C@H](CCSC)NC(=O)[C@H](CCC(=O)O)NC(=O)[C@H](CCC(=O)O)NC(=O)[C@@H](NC(=O)[C@@H](NC(=O)[C@H](CCSC)NC(=O)CNC(=O)[C@H](CO)NC(=O)CNC(=O)CNC(=O)[C@H](Cc1ccccc1)NC(=O)CNC(=O)[C@H](CC(C)C)NC(=O)[C@H](CC(C)C)NC(=O)[C@H](Cc1ccccc1)NC(=O)[C@H](CCC(=O)O)NC(=O)[C@H](CCCNC(=N)N)NC(=O)[C@H](CO)NC(=O)[C@H](Cc1ccc(O)cc1)NC(=O)[C@H](CCCNC(=N)N)NC(=O)[C@H](CCCCN)NC(=O)[C@@H](N)CCCCN)[C@@H](C)O)C(C)C)C(=O)N[C@@H](CCCCN)C(=O)N[C@@H](CO)C(=O)N[C@@H](Cc1c[nH]c2ccccc12)C(=O)N[C@@H](CC(=O)O)C(=O)N[C@@H](CCC(N)=O)C(=O)N[C@@H](CCCNC(=N)N)C(N)=O` [eIFTerminator1] (H-KKRYSREFLLGFGGSGMTVEEMDSWIKSWDQR-NH2) showed a Kd in assay [1] of 54 ± 9 nM.
Turning to `CC[C@H](C)[C@H](NC(=O)[C@H](Cc1c[nH]c2ccccc12)NC(=O)[C@H](CO)NC(=O)[C@H](CC(=O)O)NC(=O)[C@H](CCSC)NC(=O)[C@H](CCC(=O)O)NC(=O)[C@H](CCC(=O)O)NC(=O)[C@@H](NC(=O)[C@@H](NC(=O)[C@@H](N)CCSC)[C@@H](C)O)C(C)C)C(=O)N[C@@H](CCCCN)C(=O)N[C@@H](CO)C(=O)N[C@@H](Cc1c[nH]c2ccccc12)C(=O)N[C@@H](CC(=O)O)C(=O)N[C@@H](CCC(N)=O)C(=O)N[C@@H](CCCNC(=N)N)C(=O)NCC(=O)NCC(=O)N[C@@H](CO)C(=O)NCC(=O)N[C@@H](CCCCN)C(=O)N[C@@H](CCCCN)C(=O)N[C@@H](CCCNC(=N)N)C(=O)N[C@@H](Cc1ccc(O)cc1)C(=O)N[C@@H](CO)C(=O)N[C@@H](CCCNC(=N)N)C(=O)N[C@@H](CCC(=O)O)C(=O)N[C@@H](Cc1ccccc1)C(=O)N[C@@H](CC(C)C)C(=O)N[C@@H](CC(C)C)C(=O)NCC(=O)N[C@@H](Cc1ccccc1)C(N)=O` [eIFTerminator2] (H-MTVEEMDSWIKSWDQRGGSGKKRYSREFLLGF-NH2), the Kd in assay [1] is 67.5 ± 7.4 nM.

B1: eIFTerminator1-CBL binary complex (complex)
chain 1: KKRYSREFLLGFGGSGMTVEEMDSWIKSWDQM
chain 2: PPGTVDKKMVEKCWKLMDKVVRLCQNPKLALKNSPPYILDLLPDTYQHLRTILSRYEGKMETLGENEYFRVFMENLMKKTKQTISLFKEGKERMYEENSQPRRNLTKLSLIFSHMLAELKGIFPSGLFQGDTFRITKADAAEFWRKAFGEKTIVPWKSFRQALHEVHPISSGLEAMALKSTIDLTCNDYISVFEFDIFTRLFQPWSSLLRNWNSLAVTHPGYMAFLTYDEVKARLQKFIHKPGSYIFRLSCTRLGQWAIGYVTADGNILQTIPHNKPLFQALIDGFREGFYLFPDGRNQNPDLTGLCEPTPQDHIKVTQEQYELYCEMGSTFQLCKICAENDKDVKIEPCGHLMCTSCLTSWQESEGQGCPFCRCEIKGTEPIVVDPFD
In assay [2], B1 came in with a Kd of 77.8 nM.

B2: eIFTerminator2-CBL binary complex (complex)
chain 1: KKRYSREFLLGFGGSGGSGGSGMTVEEMDSWIKSWDQM
chain 2: B1 chain 2
B2: in assay [2], the Kd came out at 60.7 nM.

B3: eIFTerminator3-CBL binary complex (complex)
chain 1: MTVEEMDSWIKSWDQMGGSGKKRYSREFLLGF
chain 2: B1 chain 2
In assay [2], B3 returned a Kd of 81.8 nM.

B4: eIFTerminator4-CBL binary complex (complex)
chain 1: MTVEEMDSWIKSWDQMGGSGGSGGSGKKRYSREFLLGF
chain 2: B1 chain 2
B4: the Kd in assay [2] came to 43.8 nM.
